According to PMC5517562, “Design and discovery of novel monastrol-1,3,5-triazines as potent anti-breast cancer agent via attenuating Epidermal Growth Factor Receptor tyrosine kinase” (Scientific Reports, 2017):

Experiments:
MCF-7 (breast cancer) = assay: MTT in vitro cytotoxicity assay, MCF-7; assay type: cell-based, human; details: Homo sapiens, MCF7
Protocol: (§1) The synthesized compounds were evaluated for in-vitro cytotoxic activity against various cell lines such as HeLa (cervical cancer), MCF-7 (breast cancer), HL-60 (Human promyelocytic leukemia), HepG2 (Hepatocellular carcinoma) and MCF 12A (normal epithelial cell) by the MTT assay method. […] The relationship between surviving fraction and drug concentration was plotted to obtain the survival curve of all the cancer cell lines HeLa, MCF-7, HL-60 and HepG2. The response parameter calculated was the IC50 values, which responds to the concentration required for 50% inhibition of cell viability. The in-vitro cytotoxic activity of the synthesized compounds is summarized Table 3.
(§2) The target compounds were subjected to in vitro cytotoxicity bioassay. In vitro cytotoxicity was determined using a standard MTT assay with protocol appropriate for the individual test system[29]–[31]. The four human cancer cell lines HeLa, MCF-7, HL-60, HepG2 and MCF-12A were cultured in the MEM medium supplemented with 10% FBS, 1% glutamine and […] gentamicin sulfate in a CO2 incubator in a humidified atmosphere of 5% CO2 and 95% air. The test compounds were prepared prior to the experiment by dissolving in 0.1% DMSO and diluted with medium. The cells were then exposed to different concentrations of drugs ([…]) in the volume of […]. Cells in the control wells received the same volume of medium containing 0.1% DMSO. After 24 h, the medium was removed and cell cultures were incubated with […] MTT reagent (1 mg/ml) for 5 h at 37 °C. The known number of cells ([…]) was incubated in a 5% CO2 incubator at 37 °C in the presence of different concentrations of test compounds. After 48 h of drug incubation, the MTT solution was added in each well and absorbance was recorded at 540 nm by an ELISA reader. The experiment was performed in triplicate. Cell survival was calculated as the percentage of MTT inhibition as % growth inhibition = 100 − (mean OD of individual test Group/Mean OD of each Control Group) × 100.

HeLa (cervical cancer) = assay: MTT in vitro cytotoxicity assay, HeLa; assay type: cell-based, human; details: Homo sapiens
Protocol: as §1, §2

[1] = tested on: MCF 12A (normal epithelial breast cell line); assay: MTT assay on normal cells, MCF 12A; assay type: cell-based, human; details: normal epithelial breast cell MCF 12A
Protocol: as §1
The presence of non-halogen substituent along with electron donating substituent seriously jeopardise the anticancer potential. […] To determine the selectivity of these molecules between normal and cancerous cells, the designed compounds were also tested against MCF 12A, a normal epithelial breast cell.
as §2

[2] = tested on: DMBA induced mammary tumor; assay: DMBA induced mammary tumor in female Sprague-Dawley rats; assay type: in vivo, rat
Description: Encouraged by the excellent EGFR-TK inhibitory activity and anticancer effect of compound 7l against breast cancer cells which are further substantiated with docking analysis, prompted us to further analyze the effect of compound 7l in the in-vivo system. Therefore, we have utilized 7,12-Dimethylbenz(a)anthracene (DMBA), a polycyclic aromatic hydrocarbon, to induce the mammary carcinogenesis in the experimental animals to quantify the potential protective effect of compound 7l. The mechanism behind its action to induce the cancer is based on its metabolized product, i.e. the epoxide that readily forms DNA adducts which is responsible for malignant alteration. At the first instance, the effect of compound 7l was analyzed on the effect of body weight of the experimental animals.
Animal model. The female Sprague-Dawley rats (100–120 g) were obtained from the Institutional animal house after approval from the Institutional Animal Ethics Committee. The animals were kept in suitable cages with free access to food and water under a controlled temperature (24 ± 2 °C), humidity (60 ± 10%) with alternate light/dark cycle of 12 h. The entire experimental procedures involving animals were approved by the Institutional Animal Ethics Committees (IAEC) of SHUATS, in accordance and duly approved with CPCSEA (Committee for the Purpose of Control and Supervision of Experiments on Animals, Government of India. The authors confirm that all experiments were performed in accordance with relevant guidelines and regulations of SHUATS.
Initiation of breast carcinogenesis. The mammary carcinogenesis was induced in experimental rat using one-time subcutaneous administration of DMBA (25 mg) in emulsified form with the help of sunflower oil and saline to each rat.
Design of experiment. Experimental design. Total numbers of 30 animals were randomly divided into five groups and each group contains 6 animals. The various groups received different treatment as follows:
The DMBA (s.c.; 25 mg/rat) was administered to each rats near mammary gland at the end of the first week. The test drug was administered once in a day and was continued till the end of the experimental period. At the end of 16th week, the rats were fasted overnight and sacrificed by the cervical decapitation under influence of anesthesia. The blood samples were collected in and after centrifugation, the plasma was used for the further biochemical analysis. The liver and mammary tissues were excised immediately from the experimental rats and homogenized with suitable buffer, centrifuged and the resulting supernatant was used for biochemical estimations.
Biochemical Estimation. The remaining excised liver and mammary tissues were rinsed in ice-cold saline and known amount of the tissue were homogenized in 0.1 M Tris-HCl buffer (pH 7.4) at 4°C. The supernatant was collected as tissue homogenate and was used for the estimation of various biochemical parameters. The microsomal protein concentration was estimated by the method of Lowry et al.[33]; while, the concentration of plasma and mammary TBARS was estimated by the earlier reported method, [35] and the concentration of plasma and mammary tissue LOOH were estimated by the previous method. Moreover, the activity of the antioxidant enzyme system, such as SOD, CAT, GPX, GSH, CYP450, Cyt-b5, GST and GR activity in plasma and mammary tissue were determined by the earlier method given elsewhere[37]–[43].

[3] = tested on: HepG2 (Hepatocellular carcinoma); assay: MTT in vitro cytotoxicity assay, HepG2; assay type: cell-based, human; details: Homo sapiens, NA: Not active
Protocol: as §1, §2

[4] = tested on: HL-60 (Human promyelocytic leukemia); assay: MTT in vitro cytotoxicity assay, HL-60; assay type: cell-based; details: Homo sapiens
Protocol: as §1, §2

[5] = DMBA rats, 5, 10, 15 mg/kg once a day
[6] = liver and mammary tissues of DMBA treated animals
[7] = plasma and mammary tissues of DMBA treated animals

CCOC(=O)C1=C(C)N(c2nc(Nc3cccc(F)c3)nc(Nc3cccc(F)c3)n2)C(=S)NC1c1ccc(F)cc1 (stereo not drawn) [7l, Ethyl 1-(4,6-bis((3-fluorophenyl)amino)-1,3,5-triazin-2-yl)-4-(4-fluorophenyl)-6-methyl-2-thioxo-1,2,3,4-tetrahydropyrimidine-5-carboxylate]
IC50 (MCF-7 (breast cancer)): 41.5 ± 0.31 µM | IC50 (HeLa (cervical cancer)): 39.7 ± 0.81 µM | IC50 MCF 12A [1]: non-toxic | Percentage of tumour incidence [2, 5]: efficient in reducing the percentage of incidence of tumour | Tumour volume [2, 5]: significant reduction | Body weight of experimental animals ([2]; DMBA rats, 5, 10, 15 mg/kg once a day, vs DMBA group): significantly improved | Concentration of Phase I enzymes (CYP450 and Cyt-b5) [2, 6]: marked decline | Concentration of Phase II enzymes (GST and GR) [2, 6]: significant upsurge | Antioxidant status (SOD, CAT, GSH, GPx) [2, 7]: significant improvement | Level of TBARS and LOOH (lipid peroxidation) [2, 7]: significant reduction | IC50 [3]: 31.2 ± 0.82 µM | IC50 [4]: 23.1 ± 0.36 µM
